Structures can show the parent of a compound that is named as a salt.
Legend:
[1] = target: T1, recombinant human PLA2G2A (sPLA2) (Homo sapiens, UniProt P14555); assay: Oleic acid release from phospholipid-loaded stenfilcon A lenses in ATF with and without sPLA2 (digestion assay, LCMS); assay type: biochemical; conditions: 35±2° C., 4 hours; for Oleic acid peak area in ATF + sPLA2: ATF with 50 ppm recombinant human PLA2G2A; for Oleic acid peak area in ATF + sPLA2 / Oleic acid peak area in ATF: 4 mm piece of loaded stenfilcon A lens, 100 μL; for Oleic acid peak area in ATF: ATF without sPLA2
T1 construct: purchased Creative BioMart PLA2G2A-669H
T1 sequence (P14555 21-144): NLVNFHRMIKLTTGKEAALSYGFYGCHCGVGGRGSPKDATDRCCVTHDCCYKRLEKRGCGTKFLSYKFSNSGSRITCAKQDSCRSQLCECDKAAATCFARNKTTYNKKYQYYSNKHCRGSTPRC
Experimental: The phospholipids shown in Table 1 were obtain from Avanti Polar Lipids. 3 mg/ml loading solutions of the phospholipids shown in Table 1 were prepared by adding 2.4 mL ethanol to 9 mg of phospholipid, sonicating (up to 15 minutes) then adding 0.6 mL DI water and sonicating again (up to 15 minutes) to dissolve the phospholipid.
Hydrated contact lenses made from stenfilcon A were washed three times in 3 mL purified water for 30 minutes each time. Each washed lens was placed in 3 mL of a phospholipid loading solution and incubated at room temperature with gentle shaking at 75 rpm for 3 hours. The loaded lenses were then rinsed and hydrated in several exchanges of DI water. The lenses were packaged in a buffered saline contact lens packaging solution and autoclaved.
An artificial tear fluid (ATF) was prepared by adding the first three ingredients listed in Table 2 to a clean class vial and then adding 30 mL of the fourth ingredient.
After autoclave each lens was removed from its package and place in a 6 mL glass vial containing 5 mL of the ATF at room temperature on a shaker at 125 rpm overnight to elute any free oleic acid that may be present in the lens.
Each lens was rinsed in a 6 ml glass vial containing a fresh aliquot of 5 mL ATF for 30 minutes prior to running the digestion assay.
A 50 ppm solution of sPLA2 was prepared in ATF by adding 200 μl ATF to a tube containing 10 μg recombinant human PLA2G2A (Creative BioMart, Cat. No. PLA2G2A-669H). The solution is referred to as ATF+sPLA2. Two 4 mm pieces were cut from each lens. One piece of each lens was placed in a tube with 100 μL ATF and the other piece was placed in a tube containing 100 μL ATF+sPLA2. The tubes were incubated at 35±2° C. for 4 hours with no shaking.
50 μl of the release media from each lens at T=4 hr was transferred to HPLC vials and 500 μl isopropanol (IPA) was added and mixed well. T=0 hr HPLC vials were also prepared (50 μl ATF+500 μl IPA). All vials were sonicated for 15 minutes and centrifuged. The supernatant was removed for LCMS injection.
The supernatants were injected on an LCMS instrument equipped with an ACQUITY UPLC BEH C18 […], 2.1 mm×15 cm column and running a mobile phase gradient from 65% A to 90% B at a flow rate of 0.35 mL/min with A=40% acetonitrile in water with 10 mM ammonium acetate and 0.2% (v/v) ammonium hydroxide, and B=10% acetonitrile in IPA with 10 mM ammonium acetate and 0.2% (v/v) ammonium hydroxide. The mass spec detector is run at negative electrospray mode. The peaks for oleic acid (OA) in the supernatants were measured (m/z trace=281.24). The ratio of OA peak area in ATF with and without sPLA2 was calculated.

[2] = system: sPLA2 enzymes found in human tears; assay: Susceptibility to digestion by sPLA2 enzymes found in human tears when present in a silicone hydrogel contact lens body; assay type: biochemical; conditions: phospholipid present in a silicone hydrogel contact lens body
Excerpt: To achieve these and other advantages, and in accordance with the purposes of the present invention, as embodied and broadly described herein, the present invention, in part relates to a hydrogel contact lens comprising a polymeric lens body loaded with 2-oleoyl phospholipid. The 2-oleoyl phospholipid is advantageously susceptible to digestion by secretory phospholipase 2-acylhydrolase (sPLA2) enzymes found in human tears, especially group IIA secretory phospholipase 2-acylhydrolase (sPLA2-IIA). The 2-oleoyl phospholipid present in the contact lens body is advantageously susceptible to digestion by sPLA2 enzymes found in human tears, especially sPLA2-IIA when the 2-oleoyl phospholipid is present in the polymeric lens body of a silicone hydrogel contact lens, such as a stenfilcon A contact lens. […] For the avoidance of doubt, while the determination of whether a 2-oleoyl phospholipid is susceptible to digestion by sPLA2 enzymes may be carried out by loading the 2-oleoyl phospholipid to a stenfilcon A lens, the contact lens of the invention, including contact lenses comprising 2-oleoyl phospholipid that have been determined to be susceptible to digestion by sPLA2 enzymes, need not be stenfilcon A lenses and may be silicone hydrogel lenses of any formulation. […]

Ratio of OA peak area in ATF with and without sPLA2 [1]	Oleic acid peak area in ATF + sPLA2 [1]	Oleic acid peak area in ATF [1]	Susceptibility to digestion by sPLA2 enzymes found in human tears [2]	Compound
279	9958	36		CCCCCCCC/C=C\CCCCCCCC(=O)OC[C@H](COP(=O)([O-])OCC(O)CO)OC(=O)CCCCCCC/C=C\CCCCCCCC.[Na+] (mixture of isomers) [DOPG, 1,2-dioleoyl-sn-glycero-3-phospho-(1′-rac-glycerol) (sodium salt)]
			not be susceptible to digestion	CCCCCCCCCCCCCC(=O)OC[C@H](COP(=O)([O-])OCC[N+](C)(C)C)OC(=O)CCCCCCCCCCCCC [DMPC, 1,2-dimyristoyl-sn-glycero-3-phosphocholine]
1.2	125	102		CCCCCCCC/C=C\CCCCCCCC(=O)OC[C@H](COP(=O)([O-])OCC[N+](C)(C)C)OC(=O)CCCCCCC/C=C\CCCCCCCC [DOPC, 1,2-dioleoyl-sn-glycero-3-phosphocholine, reference compound]
4.6	2127	463		CCCCCCCC/C=C\CCCCCCCC(=O)OC[C@H](COP(=O)(O)OCCN)OC(=O)CCCCCCC/C=C\CCCCCCCC [DOPE, 1,2-dioleoyl-sn-glycero-3-phosphoethanolamine]

Compound	Ratio of OA peak area in ATF with and without sPLA2 [1]	Oleic acid peak area in ATF + sPLA2 [1]	Oleic acid peak area in ATF [1]	Susceptibility to digestion by sPLA2 enzymes found in human tears [2]
CCCCCCCC/C=C\CCCCCCCC(=O)OC[C@H](COP(=O)(O)OC[C@H](N)C(=O)O)OC(=O)CCCCCCC/C=C\CCCCCCCC [DOPS, 1,2-dioleoyl-sn-glycero-3-phospho-L-serine (sodium salt)]	16.4	1437	88	
